Experimental data taken from ChEMBL document CHEMBL1201862, “PubChem BioAssay data set” (2004).
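In this assay, cells in 96-well plates receive the compound at five concentrations for 48 hours. Endpoints are linearly interpolated between the surrounding concentrations. GI50 is the concentration that inhibits growth by half.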 Calls of active or inactive are those of the source. Rule as the data show it: active = GI50 up to about 1.1 µM and inactive = higher.

How the values were obtained:
Assay in all cases: NCI tumour cell line growth inhibition, 48 h
[1] = tested on: K562
[2] = tested on: TK-10
[3] = tested on: U-251
[4] = tested on: HCT-116
[5] = tested on: RPMI-8226
[6] = tested on: HOP-92
[7] = tested on: MCF7
[8] = tested on: MDA-N
[9] = tested on: NCI-H522
[10] = tested on: LOX IMVI
[11] = tested on: SF-539
[12] = tested on: UACC-62
[13] = tested on: A498
[14] = tested on: IGROV-1
[15] = tested on: SF-268
[16] = tested on: MOLT-4
[17] = tested on: OVCAR-8
[18] = tested on: SW-620
[19] = tested on: HCC 2998
[20] = tested on: CAKI-1

SMILES | GI50 [1] | GI50 [2] | GI50 [3] | GI50 [4] | GI50 [5] | GI50 [6] | GI50 [7] | GI50 [8] | GI50 [9] | GI50 [10] | GI50 [11] | GI50 [12] | GI50 [13] | GI50 [14] | GI50 [15] | GI50 [16] | GI50 [17] | GI50 [18] | GI50 [19] | GI50 [20]
O=C(O)CCCc1ccc2ccccc2c1 | > 100 µM (inactive) | > 100 µM (inactive) | > 100 µM (inactive) | > 100 µM (inactive) | 42.9 µM (inactive) | > 100 µM (inactive) | > 100 µM (inactive) | > 100 µM (inactive) | > 100 µM (inactive) | > 100 µM (inactive) | > 100 µM (inactive) | > 100 µM (inactive) | > 100 µM (inactive) | > 100 µM (inactive) | > 100 µM (inactive) | > 100 µM (inactive) | > 100 µM (inactive) | > 100 µM (inactive) | > 100 µM (inactive) | > 100 µM (inactive)
N#CC12C(=O)N=C(N)C1(C#N)C(c1ccco1)NC1=C2CCCC1 (stereo not drawn) | – | > 100 µM (inactive) | > 100 µM (inactive) | > 100 µM (inactive) | > 100 µM (inactive) | > 100 µM (inactive) | 75 µM (inactive) | > 100 µM (inactive) | > 100 µM (inactive) | > 100 µM (inactive) | – | > 100 µM (inactive) | > 100 µM (inactive) | > 100 µM (inactive) | > 100 µM (inactive) | > 100 µM (inactive) | > 100 µM (inactive) | > 100 µM (inactive) | > 100 µM (inactive) | > 100 µM (inactive)
COc1cccc2c1/c(=C/c1ccc(N(C)C)cc1)c1cc(-c3ccccc3)[n+](C)n12 | 0.0493 µM (active) | 0.165 µM (active) | < 0.0158 µM (active) | 0.107 µM (active) | 0.0202 µM (active) | 0.0414 µM (active) | 0.0957 µM (active) | 0.0826 µM (active) | 0.168 µM (active) | 0.153 µM (active) | 0.169 µM (active) | 0.182 µM (active) | 0.305 µM (active) | 0.083 µM (active) | 0.109 µM (active) | 0.0897 µM (active) | 0.0446 µM (active) | 0.0421 µM (active) | 0.0348 µM (active) | 0.804 µM (active)
CCCCCN1CCN(c2ncccn2)CC1 | > 100 µM (inactive) | > 100 µM (inactive) | > 100 µM (inactive) | > 100 µM (inactive) | > 100 µM (inactive) | 48.6 µM (inactive) | > 100 µM (inactive) | > 100 µM (inactive) | > 100 µM (inactive) | > 100 µM (inactive) | > 100 µM (inactive) | > 100 µM (inactive) | > 100 µM (inactive) | > 100 µM (inactive) | > 100 µM (inactive) | – | > 100 µM (inactive) | > 100 µM (inactive) | > 100 µM (inactive) | > 100 µM (inactive)
BrCC(Br)(c1ccccc1)c1ccccc1-c1cc(-c2ccccc2)cc(-c2ccccc2)n1 (stereo not drawn) | 0.893 µM (active) | 5.82 µM (inactive) | 1.48 µM (inactive) | 2.81 µM (inactive) | 0.908 µM (active) | 2.48 µM (inactive) | 1.09 µM (active) | 3.01 µM (inactive) | 2.33 µM (inactive) | 2.29 µM (inactive) | 4.3 µM (inactive) | – | 4.48 µM (inactive) | 3.2 µM (inactive) | 2.36 µM (inactive) | 3.26 µM (inactive) | 3.06 µM (inactive) | 3.16 µM (inactive) | 2.05 µM (inactive) | 5.87 µM (inactive)
CC(C(N)=O)N(C)C(=O)c1cc2ccccc2[n+](Cc2ccccc2)c1 (stereo not drawn) | > 100 µM (inactive) | > 100 µM (inactive) | > 100 µM (inactive) | > 100 µM (inactive) | > 100 µM (inactive) | > 100 µM (inactive) | > 100 µM (inactive) | > 100 µM (inactive) | > 100 µM (inactive) | – | > 100 µM (inactive) | > 100 µM (inactive) | > 100 µM (inactive) | > 100 µM (inactive) | > 100 µM (inactive) | > 100 µM (inactive) | > 100 µM (inactive) | > 100 µM (inactive) | > 100 µM (inactive) | > 100 µM (inactive)
O=C1CCC[C@@H]2NC[C@@H](c3ccc4c(c3)OCO4)[C@H]12 | > 25 µM (inactive) | > 25 µM (inactive) | > 25 µM (inactive) | > 25 µM (inactive) | > 25 µM (inactive) | > 25 µM (inactive) | > 25 µM (inactive) | > 25 µM (inactive) | > 25 µM (inactive) | > 25 µM (inactive) | – | > 25 µM (inactive) | > 25 µM (inactive) | > 25 µM (inactive) | > 25 µM (inactive) | > 25 µM (inactive) | > 25 µM (inactive) | – | > 25 µM (inactive) | > 25 µM (inactive)
